How the values were obtained:
Type in all cases: functional
[1] = test system: Spodoptera litura; experiment: Insecticidal activity against third-instar larval stage of Spodoptera litura fed on compound-treated castor leaves assessed as pupal duration time at 10 ug/cm2 (reference value: 8.1 +/- 0.14 days)
[2] = test system: Spodoptera litura; experiment: Insecticidal activity against third-instar larval stage of Spodoptera litura fed on compound-treated castor leaves assessed as total larval duration time at 5 ug/cm2 (reference value: 12.7 +/- 0.89 days)
[3] = test system: Spodoptera litura; experiment: Antifeedant activity against third-instar larval stage of Spodoptera litura fed on compound-treated castor leaves assessed as feeding deterrence index at 10 ug/cm2 by dual choice leaf disc method
[4] = test system: Spodoptera litura; experiment: Insecticidal activity against third-instar larval stage of Spodoptera litura fed on compound-treated castor leaves assessed as pupal duration time at 5 ug/cm2 (reference value: 8.1 +/- 0.14 days)
[5] = test system: Spodoptera litura; experiment: Insecticidal activity against third-instar larval stage of Spodoptera litura fed on compound-treated castor leaves assessed as pupal mortality at 5 ug/cm2 (reference value: 4.17%)
[6] = test system: Spodoptera litura; experiment: Antifeedant activity against third-instar larval stage of Spodoptera litura fed on compound-treated castor leaves assessed as feeding deterrence index at 5 ug/cm2 by dual choice leaf disc method
[7] = test system: Spodoptera litura; experiment: Insecticidal activity against third-instar larval stage of Spodoptera litura fed on compound-treated castor leaves assessed as total larval duration time at 10 ug/cm2 (reference value: 12.7 +/- 0.89 days)
[8] = test system: Spodoptera litura; experiment: Insecticidal activity against third-instar larval stage of Spodoptera litura fed on compound-treated castor leaves assessed as pupal mortality at 10 ug/cm2 (reference value: 4.17%)
[9] = test system: Spodoptera litura; experiment: Insecticidal activity against third-instar larval stage of Spodoptera litura fed on compound-treated castor leaves assessed as larval mortality at 10 ug/cm2 (reference value: 4%)
[10] = test system: Spodoptera litura; experiment: Insecticidal activity against third-instar larval stage of Spodoptera litura fed on compound-treated castor leaves assessed as larval mortality at 5 ug/cm2 (reference value: 4%)

C/C=C(\C)C(=O)O[C@H]1C[C@@H](OC(C)=O)[C@@]2(C(=O)OC)CO[C@H]3[C@@H](O)[C@@](C)([C@]45O[C@@]4(C)[C@@H]4C[C@H]5O[C@@H]5OC=C[C@@]54O)[C@H]4[C@]1(CO[C@]4(O)C(=O)OC)[C@@H]32 [AZADIRACHTIN A]
Time [1]: 10.14 days
Time [2]: 15 days
FDI [3]: 12.59%
Time [4]: 9.8 days
mortality at 5 µg/cm2 [5]: 33.2%
FDI [6]: 15.62%
Time [7]: 16.3 days
mortality at 10 µg/cm2 [8]: 40%
mortality at 10 µg/cm2 [9]: 64%

C/C=C(\C)C(=O)O[C@H]1C[C@@H](OC(C)=O)[C@@]2(C)CO[C@H]3[C@H]4O[C@@H]5C[C@@H](C6=CCOC6=O)C(C)=C5[C@@]4(C)[C@H](CC(=O)OC)[C@]1(C)[C@@H]32 [SALANNOBUTYROLACTONE]
Time [1]: 9.4 days
mortality at 5 µg/cm2 [10]: 32%
Time [2]: 14 days
FDI [3]: 36.69%
Time [4]: 8.7 days
mortality at 5 µg/cm2 [5]: 30.2%
FDI [6]: 39.34%
Time [7]: 15.5 days
mortality at 10 µg/cm2 [8]: 37.2%
mortality at 10 µg/cm2 [9]: 52%

C/C=C(\C)C(=O)O[C@H]1C[C@@H](O)[C@@]2(C)CO[C@H]3[C@H]4O[C@@H]5C[C@@H](C6=CCOC6=O)C(C)=C5[C@@]4(C)[C@H](CC(=O)OC)[C@]1(C)[C@@H]32 [DESACETYLSALANNOBUTYROLACTONE]
Time [1]: 8.6 days
mortality at 5 µg/cm2 [10]: 24%
Time [2]: 13.1 days
FDI [3]: 47.97%
Time [4]: 8.41 days
mortality at 5 µg/cm2 [5]: 27.3%
FDI [6]: 50.45%
Time [7]: 14.4 days
mortality at 10 µg/cm2 [8]: 33.3%
mortality at 10 µg/cm2 [9]: 40%
